From patent US4250259A, “Microbiological production of ketones from C3 -C6 secondary alcohols” (priority 1979, dated 1981)

Assays:
[1] = test system: Methylobacter capsulatus Y (NRRL B-11,201); assay: sec-alcohols to ketones by resting cell suspensions; type: cell-based
Experimental: (§1) The pH of the nutrient medium was adjusted to 7.0 by the addition of acid or base and 50 ml. samples of the nutrient medium were charged into a plurality of 300 ml. shaker flasks. The shaker flasks were inoculated with an inoculating loop of cells from an agar plate containing homogeneous colonies of the microorganisms on the plate (the purity of the isolates was confirmed by microscopic examination). The isolates had been maintained on methanol (0.4% V/V) agar plates or on agar plates under an atmosphere of methane and air having a 1:1 V/V gas ratio which had been transferred every two weeks. For growth on methanol, the medium was supplemented with 0.4% methanol. For growth on methane, the gaseous phase of the inoculated flasks was replaced with a gas mixture comprised of methane and air having a ratio of 1:1 on a V/V basis. The inoculated flasks were sealed air-tight and were incubated on a rotary shaker of orbital radius 2.5 cm. at 250 rpm and at 30° C. for two days until turbidity in the medium had developed. The cells were harvested by centrifugation at 10,000×g. at 4° C. for 30 minutes. The cell pellet was washed twice with a 0.05 M phosphate buffer at a pH of 7.0 (containing 0.02 M MgCl2). The washed cells were then suspended in a 0.05 M phosphate buffer at pH 7.0.
(§2) A 0.5 ml. sample of each washed cell suspension (2 mg. cells) was put into 10 ml. vials at 4° C. which were sealed with a rubber cap. The gaseous phase of the vials was removed with vacuum and then was replaced with a gas mixture of the substrate reactant (i.e., alkane or secondary alcohol) and oxygen at a 1:1 V/V ratio. (In the case of a liquid substrate, i.e., secondary alcohol, 10 μl of the substrate was put in the 10 ml. vials). […] Samples of product (1-3 μl) were withdrawn periodically with a microsyringe and the products were analyzed by gas chromatography (ionization flame detector column).
(§3) The procedure in Example 1 was repeated wherein a plurality of the methane-utilizing methylotrophic microorganisms were each grown aerobically in a nutrient medium containing methane as the alcohol dehydrogenase enzyme inducer and as the major carbon and energy source for growth. The cells were harvested and washed as described in Example 1. The resting microbial cells of the induced methane-grown methane-utilizing methylotrophic microorganisms were then contacted with C3 -C6 secondary alcohols in a buffered solution by the procedure of Example 1.
(§4) In this example, the procedure in Example 1 was repeated except that a plurality of methane-utilizing methylotrophic microorganisms were each aerobically grown in a methanol-containing nutrient medium instead of a methane-containing medium. The nutrients in the medium were the same as indicated in Example 1 except that 0.4% V/V methanol was used as the alcohol dehydrogenase inducer and major source of carbon and energy for growth. Following growth, the cells were harvested and washed as described in Example 1.
(§5) The resting cells of the induced methanol-grown methylotrophic microorganisms were then contacted with secondary alcohols in a buffered solution by the procedure described in Example 1.

[2] = test system: Methylocystis parvus OBBP (NRRL B-11,198); assay: as above; type: cell-based
Experimental: as §1, §2, §3, §4, §5

[3] = test system: Methylococcus capsulatus, Texas (ATCC 19069); assay: as above; type: cell-based
Experimental: as §1, §2, §3, §4, §5

[4] = test system: Methylomonas methanica S1 (NRRL B-11,199); assay: as above; type: cell-based
Experimental: as §1, §2, §3, §4, §5

[5] = test system: cell extracts (NAD+-dependent secondary alcohol dehydrogenase); assay: sec-alcohols to methyl ketones by cell extracts of yeasts, gas chromatography; type: biochemical, Hansenula polymorpha ATCC 26,012; settings: grown on methanol
[6] = test system: Torulopsis sp. Strain A1 (NRRLY-11,419); assay: sec-alcohols to ketones by cell suspensions of yeasts; type: cell-based
[7] = test system: Methylosinus trichosporium OB3b (NRRL B-11,196); assay: sec-alcohols to ketones by resting cell suspensions; type: cell-based
Experimental: as §1, §2, §3, §4, §5
(§6) The procedure in Example 1 was repeated except that the methylotrophic microorganisms were each aerobically grown in an alcohol dehydrogenase-inducing growth medium containing methylamine or methyl formate as the alcohol dehydrogenase enzyme inducer and growth substrate instead of methane. The nutrients in the medium were the same as indicated in Example 1 except that 0.4% V/V of the alcohol dehydrogenase-inducer growth substrate was used as the major carbon and energy source. The cells were harvested and washed as described in Example 1. The resting microbial cells were then contacted with C3 -C6 secondary alcohols in a buffered solution by the conversion procedure of Example 1.

[8] = test system: Methylobacterium organophilum XX (ATCC 27886); assay: as above; type: cell-based
Experimental: as §1, §2, §3, §4, §5, §6

[9] = test system: Methanomonas methylovora ATCC 21852 (Obligate); assay: as above; type: cell-based
Experimental: as §1, §2
(§7) The procedure in Example 1 was repeated except that a plurality of methanol-utilizing methylotrophic microorganisms were each aerobically grown in a methanol-containing nutrient medium instead of a methane-containing medium. The nutrients in the medium were the same as indicated in Example 1 except that 0.4% V/V methanol was used as the alcohol dehydrogenase inducer and as the major carbon and energy source for growth. The cells were harvested and washed as described in Example 1. The resting microbial cells of the induced methanol-grown methanol-utilizing methylotrophic microorganisms were then contacted with C3 -C6 secondary alcohols in a buffered solution by the procedure of Example 1.
as §6

[10] = test system: Pseudomonas sp. ATCC 21438 (Facultative); assay: as above; type: cell-based
Experimental: as §1, §2, §7, §6

CC(C)O [2-Propanol, 2-propanol]
Conversion Rates, sec-alcohol to corresponding ketone ([1]; cells grown on methane): 0.15 μmoles/hr/mg protein
Conversion Rates, sec-alcohol to corresponding ketone ([1]; cells grown on methanol): 0.52 μn moles/hr/mg protein
Conversion Rates, sec-alcohol to corresponding ketone ([2]; cells grown on methane): 0.32 μmoles/hr/mg protein
Conversion Rates, sec-alcohol to corresponding ketone ([2]; cells grown on methanol): 0.25 μn moles/hr/mg protein
Conversion Rates, sec-alcohol to corresponding ketone ([3]; cells grown on methane): 0.80 μmoles/hr/mg protein
Conversion Rates, sec-alcohol to corresponding ketone ([3]; cells grown on methanol): 0.75 μn moles/hr/mg protein
Conversion Rates, sec-alcohol to corresponding ketone ([4]; cells grown on methane): 0.40 μmoles/hr/mg protein
Conversion Rates, sec-alcohol to corresponding ketone ([4]; cells grown on methanol): 0.35 μn moles/hr/mg protein
Conversion Rate, sec-alcohol to methyl ketone [5]: 4.8 μmoles/hr/mg Protein
Conversion Rate, sec-alcohol to corresponding ketone ([6]; Growth Substrate Ethanol): 4.2 μmoles/hr/mg of protein
Conversion Rate, sec-alcohol to corresponding ketone ([6]; Growth Substrate Methanol): 4.5 μmoles/hr/mg of protein
Conversion Rate, sec-alcohol to corresponding ketone ([6]; Growth Substrate Methylamine): 4.3 μmoles/hr/mg of protein
Conversion Rate, sec-alcohol to corresponding ketone ([6]; Growth Substrate Methylformate): 4.5 μmoles/hr/mg of protein
Conversion Rate, sec-alcohol to corresponding ketone ([6]; Growth Substrate Propylamine): 3.2 μmoles/hr/mg of protein
Conversion Rates, sec-alcohol to corresponding ketone ([7]; cells grown on methane): 0.25 μmoles/hr/mg protein
Conversion Rates, sec-alcohol to corresponding ketone ([7]; cells grown on methanol): 0.30 μn moles/hr/mg protein
Conversion Rates, sec-alcohol to corresponding ketone ([7]; methyl formate-grown cells): 0.95 μmoles/hr/mg protein
Conversion Rates, sec-alcohol to corresponding ketone ([8]; cells grown on methane): 0.5 μmoles/hr/mg protein
Conversion Rates, sec-alcohol to corresponding ketone ([8]; cells grown on methanol): 0.70 μn moles/hr/mg protein
Conversion Rates, sec-alcohol to corresponding ketone ([8]; methyl formate-grown cells): 0.48 μmoles/hr/mg protein
Conversion Rates, sec-alcohol to corresponding ketone ([9]; methanol-grown cells): 0.28 μmoles/hr/mg protein
Conversion Rates, sec-alcohol to corresponding ketone ([9]; methyl formate-grown cells): 0.62 μmoles/hr/mg protein
Conversion Rates, sec-alcohol to corresponding ketone ([9]; methylamine-grown cells): 0.82 μmoles/hr/mg protein
Conversion Rates, sec-alcohol to corresponding ketone ([10]; methanol-grown cells): 0.45 μmoles/hr/mg protein
Conversion Rates, sec-alcohol to corresponding ketone ([10]; methyl formate-grown cells): 0.52 μmoles/hr/mg protein
Conversion Rates, sec-alcohol to corresponding ketone ([10]; methylamine-grown cells): 1.0 μmoles/hr/mg protein
